Results taken from patent US20080280933A1, “BENZIMIDAZOLYL COMPOUNDS” (priority 2006, published 2008).

Target: T1, mGluR2 receptor (metabotropic glutamate receptor 2) (Homo sapiens, UniProt Q14416)
T1 construct: expressed in transfected cells
Assay: mGluR2 Potentiator Screen, FLIPR, EC10-EC20 glutamate challenge
Type: cell-based
Details: EC50 (uM)
Summary of the method: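 HEK cells stably co-expressing mGluR2 and Gα15, kept glutamine-free overnight, were loaded with Fluo-4 plus probenecid and GPT/pyruvate. Compounds (top 10 μM) were added ≥30 min before an EC10–EC20 glutamate challenge. Peak FLIPR fluorescence ratios were curve-fitted, excluding points above maximal effect, with maxima from on-plate standards.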

T1 sequence (Q14416 19-872, species assumed): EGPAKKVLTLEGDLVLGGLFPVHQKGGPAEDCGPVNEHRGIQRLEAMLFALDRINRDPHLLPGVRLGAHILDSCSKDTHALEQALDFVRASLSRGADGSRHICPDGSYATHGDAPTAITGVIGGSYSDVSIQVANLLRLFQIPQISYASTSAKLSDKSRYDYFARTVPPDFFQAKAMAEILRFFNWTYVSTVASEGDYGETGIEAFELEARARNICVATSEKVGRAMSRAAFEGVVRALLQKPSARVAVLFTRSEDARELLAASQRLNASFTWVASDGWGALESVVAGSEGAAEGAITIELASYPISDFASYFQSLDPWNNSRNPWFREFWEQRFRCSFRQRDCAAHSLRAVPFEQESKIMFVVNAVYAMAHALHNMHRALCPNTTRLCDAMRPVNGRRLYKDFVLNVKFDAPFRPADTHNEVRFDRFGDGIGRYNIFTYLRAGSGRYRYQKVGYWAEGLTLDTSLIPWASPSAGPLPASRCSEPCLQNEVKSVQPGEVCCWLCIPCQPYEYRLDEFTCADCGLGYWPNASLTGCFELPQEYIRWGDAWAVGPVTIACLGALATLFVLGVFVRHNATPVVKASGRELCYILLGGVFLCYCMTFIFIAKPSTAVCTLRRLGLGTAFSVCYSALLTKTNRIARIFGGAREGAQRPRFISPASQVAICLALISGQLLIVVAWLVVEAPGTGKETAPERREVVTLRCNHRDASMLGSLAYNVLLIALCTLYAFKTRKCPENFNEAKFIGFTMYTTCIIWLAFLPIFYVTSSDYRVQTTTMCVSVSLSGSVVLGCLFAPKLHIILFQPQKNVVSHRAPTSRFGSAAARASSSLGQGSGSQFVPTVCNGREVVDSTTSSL

Row | Compound | EC50
1 | CCC(=O)C1(c2ccccc2)CCN(Cc2nc3ccccc3n2C)CC1 [compound 73] | 3.97 µM

Same assay, conditions: mGluR2 potentiator screen, Table 7; read-out: EC50

Row | Compound | EC50
2 | CC[C@H](C)COc1ccc(Cl)cc1C1CCN(Cc2nc3ccccc3n2CCOC)CC1 [compound 176] | 1.34 µM
3 | CC1CC1COc1ccc(Cl)cc1C1CCN(Cc2nc3ccccc3n2CCF)CC1 (centres unmarked) [compound 200] | 1.55 µM
4 | FCn1c(CN2CCC(c3cc(Cl)ccc3OCC3CCC3)CC2)nc2ccccc21 [compound 193] | 2.34 µM
5 | COCCn1c(CN2CCC(c3cc(Cl)ccc3OCC3CCCCO3)CC2)nc2ccccc21 (centres unmarked) [compound 218] | 1.55 µM
6 | COc1ccc(OC)c(C2CCN(Cc3nc4ccccc4n3C)C2)c1 (centres unmarked) [compound 154] | 0.285 µM
7 | CCCCOc1ccc(Cl)cc1C1CCN(Cc2nc3ccccc3n2CF)CC1 [compound 182] | 0.355 µM
8 | Cn1c(CN2CCC(c3ccccc3)C2)nc2ccccc21 (centres unmarked) [compound 151] | 4.1 µM
9 | Cn1c(CN2CCC(c3ccccc3Cl)CC2)nc2c(Br)cccc21 [compound 160] | 0.862 µM
10 | CCCCOc1ccc(Cl)cc1C1CCN(Cc2nc3ccccc3n2CCF)CC1 [compound 186] | 0.246 µM
11 | CCCCOc1ccc(Cl)cc1C1CCN(Cc2nc3ccccc3n2C)CC1 [compound 185] | 0.138 µM

Same assay, conditions: read-out: EC50

Row | Compound | EC50
12 | COC(=O)CCC(=O)N1CC2(CCN(Cc3nc4ccccc4n3C)CC2)c2cc(Cl)ccc21 [compound 42] | 3.23 µM
13 | Cn1c(CN2CCC(c3cccc(F)c3)CC2)nc2ccccc21 [compound 430] | 3.31 µM
14 | CCOC(=O)CCC(=O)N1CC2(CCN(Cc3nc4ccccc4n3C)CC2)c2cc(C)ccc21 [compound 33] | 1.35 µM
15 | Cn1c(CN2CCC(c3ccc(C(F)(F)F)cc3)C(F)C2)nc2ccccc21 (centres unmarked) [compound 441] | 0.157 µM
16 | Cn1c(CN2CCC(c3ccc(C(F)(F)F)cc3)CC2)nc2cc(C(N)=O)ccc21 [compound 364] | 0.498 µM
17 | COc1ccc(C(F)(F)F)cc1C1CCN(Cc2nc3ccccc3n2C2CC2)CC1 [compound 318] | 4.69 µM
18 | Cn1c(CN2CCC(c3cc(Cl)ccc3F)CC2)nc2cc(C#N)ccc21 [compound 387] | 0.201 µM
19 | CC[C@H](C)COc1ccccc1C1CCN(Cc2nc3ccccc3n2C)CC1 [compound 94] | 1.61 µM
20 | Cn1c(CN2CCC(c3ccccc3F)CC2)nc2cccc(F)c21 [compound 344] | 0.0206 µM
21 | Cn1c(CN2CCC(c3cc(C(F)(F)F)ccc3F)CC2)nc2c(F)cccc21 [compound 401] | 0.161 µM
22 | Cn1c(CN2CCC3(CC2)CN(CC2CC2)c2ccc(F)cc23)nc2ccccc21 [compound 138] | 8.59 µM
23 | 2-((4-(2-fluorophenyl)piperidin-1-yl)methyl)-6-methoxy-1-methyl-1H-benzo[d]imidazole [Entry 278] | 1.62 µM
24 | Cn1c(CN2CCC(c3ccc(F)cc3F)CC2)nc2cc(F)ccc21 [compound 423] | 0.0352 µM
25 | Cc1ccc2c(c1)C1(CCN(Cc3nc4ccccc4n3C)CC1)CN2C(=O)c1snnc1C [compound 21] | 1.16 µM
26 | COc1cc(C(F)(F)F)ccc1C1CCN(Cc2nc3c(F)cccc3n2C)CC1 [compound 400] | 0.0436 µM
27 | COCCn1c(CN2CCC(c3cc(Cl)ccc3OC)CC2)nc2ccccc21 [compound 230] | 0.209 µM
28 | COC(=O)CCCCC(=O)N1CC2(CCN(Cc3nc4ccccc4n3C)CC2)c2ccccc21 [compound 51] | 7.13 µM
29 | COc1ccccc1C1CCN(Cc2nc3ccccc3n2CF)CC1 [compound 254] | 0.0624 µM
30 | COc1cc(F)ccc1C1CCN(Cc2nc3ccccc3n2C)CC1 [compound 409] | 0.0634 µM
31 | Cn1c(CN2CC[C@@H]3c4ccccc4OC[C@H]3C2)nc2ccccc21 [compound 470] | 1.52 µM
32 | Cn1c(CN2CCC(O)(c3cc(Br)cc(Br)c3)CC2)nc2ccccc21 [compound 68] | 1.24 µM
33 | Cn1c(CN2CCC3(CC2)CN(CC2CCCO2)c2ccc(Cl)cc23)nc2ccccc21 (centres unmarked) [compound 107] | 6.65 µM
34 | Cc1cc(F)ccc1C1CCN(Cc2nc3ccccc3n2C)CC1 [compound 310] | 0.0433 µM
35 | COc1ccccc1C1CCN(Cc2nc3cc(Cl)ccc3n2C)CC1 [compound 285] | 0.0493 µM
36 | Cn1c(CN2CCC(c3ccc(C(F)(F)F)cc3)C(O)C2)nc2ccccc21 (centres unmarked) [compound 428] | 1.12 µM
37 | COCCn1c(CN2CCC(c3cc(C(F)(F)F)ccc3F)CC2)nc2ccccc21 [compound 326] | 0.263 µM

Row | Compound | EC50
38 | Cn1c(CN2CCC(c3cccc(Cl)c3)CC2)nc2ccccc21 [compound 417] | 0.18 µM
39 | C#CCOc1ccc(Cl)cc1C1CCN(Cc2nc3ccccc3n2CCF)CC1 [compound 236] | 0.0741 µM
40 | Cn1c(CN2CCC(F)(c3ccc(F)cc3)CC2)nc2ccccc21 [compound 434] | 0.308 µM
41 | FC(F)(F)c1ccc(C2CCN(Cc3nc4ccccc4n3C3CC3)CC2)cc1 [compound 247] | 0.821 µM
42 | Cn1c(CN2CCC(c3ccccc3F)CC2)nc2c(C#N)cccc21 [compound 268] | 1.71 µM
43 | COc1ccc(C(F)(F)F)cc1C1CCN(Cc2nc3cc(F)ccc3n2C)CC1 [compound 377] | 0.853 µM
44 | COc1cc(C(F)(F)F)ccc1[C@H]1CCN(Cc2nc3ccccc3n2C)C[C@H]1C (relative stereo) [compound 459] | 0.128 µM
45 | Cn1c(CN2CCC(c3ccccc3F)CC2)nc2cccc(C#N)c21 [compound 307] | 0.0314 µM
46 | Cn1c(CN2CCC3(CC2)COc2ccccc23)nc2ccccc21 [compound 262] | 1.17 µM
47 | Cn1c(CN2CCC(c3ccccc3O)CC2)nc2ccccc21 [compound 265] | 1.44 µM
48 | CC1CN(CCOc2ccccc2C2CCN(Cc3nc4ccccc4n3C)CC2)CC(C)O1 (centres unmarked) [compound 85] | 1.37 µM
49 | CCCCN1CC2(CCN(Cc3nc4ccccc4n3C)CC2)c2cc(Cl)ccc21 [compound 127] | 2.81 µM
50 | Cc1nnsc1C(=O)N1CC2(CCN(Cc3nc4ccccc4n3C)CC2)c2ccccc21 [compound 28] | 2.11 µM
51 | COc1ccccc1C1CCN(Cc2nc3ccccc3n2C)CC1C (centres unmarked) [compound 292] | 0.143 µM
52 | Cn1c(CN2CCCC(c3ccccc3)CC2)nc2ccccc21 (centres unmarked) [compound 305] | 0.235 µM
53 | Cn1c(CN2CC[C@@H]3c4ccccc4CC[C@@H]3C2)nc2ccccc21 [compound 67] | 0.693 µM
54 | Cn1c(CN2CCC(c3cc(F)cc(F)c3)CC2)nc2cc(Cl)ccc21 [compound 382] | 7.06 µM
55 | C[C@@H]1CN(Cc2ccc(C3CCN(Cc4nc5ccccc5n4C)CC3)cc2)C[C@H](C)O1 [compound 455] | 2.59 µM
56 | CCN1CC2(CCN(Cc3nc4ccccc4n3C)CC2)c2cc(C)ccc21 [compound 118] | 3.41 µM
57 | COc1ccccc1[C@H]1CCN(Cc2nc3ccccc3n2C)C[C@H]1C (relative stereo) [compound 337] | 0.323 µM
58 | COc1cc(F)ccc1C1CCN(Cc2nc3cc(F)ccc3n2C)CC1 [compound 408] | 0.0672 µM
59 | Cn1c(CN2CCC(c3ccc(C(=O)NC4CCCC4)cc3)CC2)nc2ccccc21 [compound 437] | 5.27 µM
60 | COCC(=O)N1CC2(CCN(Cc3nc4ccccc4n3C)CC2)c2cc(Cl)ccc21 [compound 44] | > 5.1 µM
61 | COc1cc(F)ccc1[C@H]1CCN(Cc2nc3ccccc3n2C)C[C@H]1C (relative stereo) [compound 464] | 0.125 µM
62 | Cn1c(CN2CCC(c3cc(C(F)(F)F)ccc3F)CC2)nc2cc(C#N)ccc21 [compound 392] | 0.441 µM
